Measured values as given in PubChem BioAssay (NCI).
Several values for one entry are separate records, joined by “and”; a condition that tells them apart may be missing. Equal entries are not always repeated.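 48-hour exposure; five concentrations; linearly interpolated endpoints. GI50: concentration for 50% inhibition of growth. TGI denotes the concentration required for complete inhibition of growth.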

Columns and labels:
Assay in all cases: NCI anticancer screen, dose series, 48 h
786-0 renal = test system: 786-0 renal
LOX IMVI melanoma = test system: LOX IMVI melanoma
SNB-19 CNS = test system: SNB-19 CNS
MDA-N = test system: MDA-N
SK-MEL-5 melanoma = test system: SK-MEL-5 melanoma
NCI/ADR-RES ovarian = test system: NCI/ADR-RES ovarian
HOP-62 NSCLC = test system: HOP-62 NSCLC
SW-620 colon = test system: SW-620 colon
IGROV1 ovarian = test system: IGROV1 ovarian
ACHN renal = test system: ACHN renal
DU-145 prostate = test system: DU-145 prostate

O=C1CSC(c2cc3cc(Br)ccc3nc2Cl)N1c1ccc(Cl)cc1 (configuration not stated)
TGI (786-0 renal): > 100 µM
TGI (LOX IMVI melanoma): 33.7 µM
TGI (SNB-19 CNS): > 100 µM
TGI (MDA-N): > 100 µM
TGI (SK-MEL-5 melanoma): 37.9 µM
TGI (NCI/ADR-RES ovarian): 75.3 µM
TGI (HOP-62 NSCLC): > 100 µM
TGI (SW-620 colon): > 100 µM
TGI (IGROV1 ovarian): > 100 µM
TGI (ACHN renal): > 100 µM
TGI (DU-145 prostate): > 100 µM

O=[N+]([O-])c1ccc(N/N=C\c2cc(Br)ccc2O)nc1
GI50 (LOX IMVI melanoma): 0.472 µM
TGI (LOX IMVI melanoma): 2.37 µM
GI50 (SNB-19 CNS): 1.05 µM
TGI (SNB-19 CNS): 19.8 µM
GI50 (SK-MEL-5 melanoma): 1.32 µM
TGI (SK-MEL-5 melanoma): 10.9 µM
GI50 (HOP-62 NSCLC): 1.59 µM
TGI (HOP-62 NSCLC): 10.3 µM
GI50 (SW-620 colon): 0.934 µM
TGI (SW-620 colon): > 100 µM
GI50 (IGROV1 ovarian): 1.05 µM
TGI (IGROV1 ovarian): 3.44 µM
GI50 (ACHN renal): 0.461 µM
TGI (ACHN renal): 2.56 µM
GI50 (DU-145 prostate): 0.912 µM
TGI (DU-145 prostate): 5.77 µM

CC(C)(CCCCC(C)(C)NC1=NCCO1)NC1=NCCO1
TGI (LOX IMVI melanoma): > 10 µM
TGI (SNB-19 CNS): > 10 µM
TGI (MDA-N): > 10 µM
TGI (SK-MEL-5 melanoma): > 10 µM
TGI (NCI/ADR-RES ovarian): > 10 µM
TGI (HOP-62 NSCLC): > 10 µM
TGI (SW-620 colon): > 10 µM
TGI (IGROV1 ovarian): > 10 µM
TGI (ACHN renal): > 10 µM
TGI (DU-145 prostate): > 10 µM

COc1ccc(/C=C2\C[C@H]3[C@@H]4CC=C5C[C@@H](O)CC[C@]5(C)[C@H]4CC[C@]3(C)\C2=N\O)cc1
TGI (786-0 renal): 44.3 µM
TGI (LOX IMVI melanoma): 33.3 µM
TGI (SNB-19 CNS): > 100 µM
TGI (MDA-N): > 100 µM
TGI (SK-MEL-5 melanoma): 23.3 µM
TGI (NCI/ADR-RES ovarian): > 100 µM
TGI (HOP-62 NSCLC): > 100 µM
TGI (SW-620 colon): > 100 µM
TGI (IGROV1 ovarian): 96.2 µM
TGI (ACHN renal): > 100 µM
TGI (DU-145 prostate): 71.5 µM

COC(=O)C1=C(O)C(C(=O)OC)[C@@]2(O)[C@@H](C(=O)OC)[C@H](C)C[C@@H]1[C@@H]2C(=O)OC (some centres not stated)
TGI (LOX IMVI melanoma): > 100 µM
TGI (SNB-19 CNS): > 100 µM
TGI (MDA-N): 31.4 µM
TGI (HOP-62 NSCLC): > 100 µM
TGI (ACHN renal): > 100 µM
TGI (DU-145 prostate): 50.5 µM

NCCc1ccc(S(=O)(=O)O)cc1[N+](=O)[O-]
TGI (786-0 renal): > 100 µM
TGI (LOX IMVI melanoma): > 100 µM
TGI (SNB-19 CNS): > 100 µM
TGI (MDA-N): > 100 µM
TGI (SK-MEL-5 melanoma): > 100 µM
TGI (NCI/ADR-RES ovarian): > 100 µM
TGI (HOP-62 NSCLC): > 100 µM
TGI (SW-620 colon): > 100 µM
TGI (IGROV1 ovarian): > 100 µM
TGI (ACHN renal): > 100 µM
TGI (DU-145 prostate): > 100 µM

COc1cc2c(cc1OCCCOc1cc3c(cc1OC)C(=O)N1CCC[C@H]1C(=O)N3)N=C[C@@H]1CCCN1C2=O
TGI (786-0 renal): > 100 µM
TGI (LOX IMVI melanoma): 18.7 µM
TGI (SNB-19 CNS): > 100 µM
TGI (SK-MEL-5 melanoma): 26.8 µM
TGI (NCI/ADR-RES ovarian): > 100 µM
TGI (HOP-62 NSCLC): > 100 µM
TGI (SW-620 colon): 56.5 µM
TGI (IGROV1 ovarian): 33.4 µM
TGI (ACHN renal): 38.5 µM
TGI (DU-145 prostate): > 100 µM

C/C=C(/CCC1NCCc2c1[nH]c1ccccc21)[Si](C)(C)C (configuration not stated)
TGI (LOX IMVI melanoma): 15.2 µM
GI50 (SNB-19 CNS): > 100 µM and 13.9 µM
TGI (SNB-19 CNS): > 100 µM and 27.3 µM
TGI (SK-MEL-5 melanoma): > 100 µM and 11.8 µM
TGI (HOP-62 NSCLC): > 100 µM and 26.7 µM
TGI (IGROV1 ovarian): > 100 µM and 21.1 µM
TGI (ACHN renal): > 100 µM and 21.5 µM

COC(=O)C(C)NP(=O)(OCc1cccc(Cn2cnc3c(N)ncnc32)c1)Oc1ccccc1 (configuration not stated)
GI50 (LOX IMVI melanoma): 48.9 µM
TGI (LOX IMVI melanoma): > 100 µM
GI50 (SK-MEL-5 melanoma): 54.1 µM
TGI (SK-MEL-5 melanoma): > 100 µM
GI50 (NCI/ADR-RES ovarian): > 100 µM
TGI (NCI/ADR-RES ovarian): > 100 µM
GI50 (HOP-62 NSCLC): > 100 µM
TGI (HOP-62 NSCLC): > 100 µM
GI50 (SW-620 colon): > 100 µM
TGI (SW-620 colon): > 100 µM
GI50 (IGROV1 ovarian): > 100 µM
TGI (IGROV1 ovarian): > 100 µM
GI50 (ACHN renal): > 100 µM
TGI (ACHN renal): > 100 µM
GI50 (DU-145 prostate): > 100 µM
TGI (DU-145 prostate): > 100 µM

O=c1c(-c2ccccc2)c(SCCCN2CCCCC2)n(-c2ccccc2)c(=S)n1-c1ccccc1
TGI (LOX IMVI melanoma): 32.4 µM
TGI (SK-MEL-5 melanoma): 30.8 µM
TGI (NCI/ADR-RES ovarian): 43.8 µM
TGI (HOP-62 NSCLC): 32.7 µM
TGI (SW-620 colon): 41.9 µM
TGI (IGROV1 ovarian): 35.7 µM
TGI (ACHN renal): 34.4 µM
TGI (DU-145 prostate): 34.1 µM

NC(Cc1cc(I)c(Oc2ccc(O)c(I)c2)c(I)c1)C(=O)O (configuration not stated)
TGI (786-0 renal): > 100 µM
TGI (LOX IMVI melanoma): > 100 µM
TGI (SNB-19 CNS): > 100 µM
TGI (MDA-N): > 100 µM
TGI (SK-MEL-5 melanoma): > 100 µM
TGI (NCI/ADR-RES ovarian): > 100 µM
TGI (HOP-62 NSCLC): > 100 µM
TGI (SW-620 colon): > 100 µM
TGI (IGROV1 ovarian): > 100 µM
TGI (ACHN renal): > 100 µM
TGI (DU-145 prostate): > 100 µM

Fc1ccc2c(c1)SC1=Nc3sc4cc(F)ccc4[n+]3CN12
TGI (786-0 renal): 47.4 µM
TGI (LOX IMVI melanoma): 52.5 µM
TGI (SNB-19 CNS): 38.4 µM
TGI (SK-MEL-5 melanoma): 28.2 µM
TGI (NCI/ADR-RES ovarian): 63.6 µM
TGI (HOP-62 NSCLC): 56.1 µM
TGI (SW-620 colon): > 100 µM
TGI (IGROV1 ovarian): 30.6 µM
TGI (ACHN renal): 62.2 µM
TGI (DU-145 prostate): > 100 µM
